Assay results reported in patent US20120115724A1, “METHOD OF CONTROLLING UNDESIRED VEGETATION” (SYNGENTA CROP PROTECTION LLC, priority 2009, published 2012).

Experiments:
Format in all cases: in vivo
[1] = tested on: ABUTH Abutilon theophrasti; experiment: Post-emergence crop and weed test (Example 15); details: 360 h, after 15 days, read-out: Percentage damage ABUTH
Description: (§1) Seeds of crop and representative weed species were sown in standard soil in pots. After cultivation for 14 days under controlled conditions in a glasshouse (at 22/16° C., day/night; 16 hours light; 65% humidity), the plants were sprayed. The spray solution was prepared by dissolving the technical active ingredient in acetone containing 10.56 wt % Emulsogen EL, 42.22 wt % N-methylpyrrolidone and 2.22 wt % DPG-monoethyl ether to give a 5% stock solution. This was then diluted with water containing 0.2% (v/v) of the adjuvant X-77 to give the desired treatment concentration.
(§2) The test plants were then grown on under controlled conditions in a glasshouse (at 22/16° C., day/night; 16 hours light; 65% humidity) and watered twice daily. After 15 days the test was evaluated (100 =total damage to plant; 0 =no damage to plant).

[2] = tested on: AMARE Amaranthus retroflexus; experiment: Post-emergence crop and weed test (Example 15); details: 360 h, after 15 days, read-out: Percentage damage AMARE
Description: as §1, §2

[3] = tested on: CHEAL Chenopodium album; experiment: Post-emergence crop and weed test (Example 15); details: 360 h, after 15 days, read-out: Percentage damage CHEAL
Description: as §1, §2

[4] = tested on: EPHHL Euphorbia heterophylla; experiment: Post-emergence crop and weed test (Example 15); details: 360 h, after 15 days, read-out: Percentage damage EPHHL
Description: as §1, §2

[5] = tested on: GLXMA Soybean; experiment: Post-emergence crop and weed test (Example 15); details: Glycine max, 360 h, after 15 days, read-out: Percentage damage GLXMA
Description: as §1, §2

[6] = tested on: KCHSC Kochia scoparia; experiment: Post-emergence crop and weed test (Example 15); details: Bassia scoparia, 360 h, after 15 days, read-out: Percentage damage KCHSC
Description: as §1, §2

[7] = tested on: POLCO Polygonum convolvulus; experiment: Post-emergence crop and weed test (Example 15); details: Fallopia convolvulus, 360 h, after 15 days, read-out: Percentage damage POLCO
Description: as §1, §2

[8] = tested on: SIDSP Sida spinosa; experiment: Post-emergence crop and weed test (Example 15); details: 360 h, after 15 days, read-out: Percentage damage SIDSP
Description: as §1, §2

[9] = tested on: SINAR Sinapis arvensis; experiment: Post-emergence crop and weed test (Example 15); details: Mutarda arvensis, 360 h, after 15 days, read-out: Percentage damage SINAR
Description: as §1, §2

[10] = tested on: VERPE Veronica persica; experiment: Post-emergence crop and weed test (Example 15); details: 360 h, after 15 days, read-out: Percentage damage VERPE
Description: as §1, §2

[11] = tested on: XANST Xanthium strumarium; experiment: Post-emergence crop and weed test (Example 15); details: 360 h, after 15 days, read-out: Percentage damage XANST
Description: as §1, §2

[12] = tested on: ABUTH Abutilon theophrasti; experiment: Pre-emergence crop and weed test (Example 16); details: 250 g/ha, after 20 days
Description: as §1, with “1 day” for “14 days”
(§3) The test plants were then grown on under controlled conditions in a glasshouse (at 22/16° C., day/night; 16 hours light; 65% humidity) and watered twice daily. After 20 days the test was evaluated (100=total damage to plant; 0=no damage to plant).
(§4) Species as for Post-Emergence Test.

[13] = tested on: AMARE Amaranthus retroflexus; experiment: Pre-emergence crop and weed test (Example 16); details: 250 g/ha, after 20 days
Description: as §1, with “1 day” for “14 days”
as §3, §4

[14] = tested on: CHEAL Chenopodium album; experiment: Pre-emergence crop and weed test (Example 16); details: 250 g/ha, after 20 days
Description: as §1, with “1 day” for “14 days”
as §3, §4

[15] = tested on: EPHHL Euphorbia heterophylla; experiment: Pre-emergence crop and weed test (Example 16); details: 250 g/ha, after 20 days
Description: as §1, with “1 day” for “14 days”
as §3, §4

[16] = tested on: GLXMA Soybean; experiment: Pre-emergence crop and weed test (Example 16); details: 250 g/ha, after 20 days
Description: as §1, with “1 day” for “14 days”
as §3, §4

[17] = tested on: IPOHE Ipomoea hederacea; experiment: Pre-emergence crop and weed test (Example 16); details: 250 g/ha, after 20 days
Description: as §1, with “1 day” for “14 days”
as §3, §4

[18] = tested on: KCHSC Kochia scoparia; experiment: Pre-emergence crop and weed test (Example 16); details: 250 g/ha, after 20 days
Description: as §1, with “1 day” for “14 days”
as §3, §4

[19] = tested on: POLCO Polygonum convolvulus; experiment: Pre-emergence crop and weed test (Example 16); details: 250 g/ha, after 20 days
Description: as §1, with “1 day” for “14 days”
as §3, §4

[20] = tested on: SIDSP Sida spinosa; experiment: Pre-emergence crop and weed test (Example 16); details: 250 g/ha, after 20 days
Description: as §1, with “1 day” for “14 days”
as §3, §4

[21] = tested on: SINAR Sinapis arvensis; experiment: Pre-emergence crop and weed test (Example 16); details: 250 g/ha, after 20 days
Description: as §1, with “1 day” for “14 days”
as §3, §4

[22] = tested on: XANST Xanthium strumarium; experiment: Pre-emergence crop and weed test (Example 16); details: 250 g/ha, after 20 days
Description: as §1, with “1 day” for “14 days”
as §3, §4

[23] = tested on: Alopecurus myosuroides (ALOMY); experiment: Pre-emergence biological efficacy (Example 13); details: Alopecurus myosuroides, 312 h; pre-emergence, 1,000 g/ha, after 13 days; read-out: Percentage damage ALOMY
Procedure, shortened: (§5)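 Seeds sown in standard soil in pots, kept one day in a glasshouse (24/16 °C day/night, 14 h light, 65% humidity), then sprayed with aqueous solution from acetone/water (50:50) with 0.5% Tween 20 at 250 or 1000 g/ha. Damage scored after 13 days (0 = none, 100 = total).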

[24] = tested on: Amaranthus retroflexus (AMARE); experiment: Pre-emergence biological efficacy (Example 13); details: Amaranthus retroflexus, 312 h; pre-emergence, 1,000 g/ha, after 13 days; read-out: Percentage damage AMARE
Procedure, shortened: as §5

[25] = tested on: Echinochloa crus-galli (ECHCG); experiment: Pre-emergence biological efficacy (Example 13); details: Echinochloa crus-galli, 312 h; pre-emergence, 1,000 g/ha, after 13 days; read-out: Percentage damage ECHCG
Procedure, shortened: as §5

[26] = tested on: Ipomea hederaceae (IPOHE); experiment: Pre-emergence biological efficacy (Example 13); details: Ipomoea hederacea, 312 h; pre-emergence, 1,000 g/ha, after 13 days; read-out: Percentage damage IPOHE
Procedure, shortened: as §5

[27] = tested on: Setaria faberi (SETFA); experiment: Pre-emergence biological efficacy (Example 13); details: Setaria faberi, 312 h; pre-emergence, 1,000 g/ha, after 13 days; read-out: Percentage damage SETFA
Procedure, shortened: as §5

[28] = tested on: Solanum nigrum (SOLNI); experiment: Pre-emergence biological efficacy (Example 13); details: Solanum nigrum, 312 h; pre-emergence, 1,000 g/ha, after 13 days; read-out: Percentage damage SOLNI
Procedure, shortened: as §5

[29] = tested on: Alopecurus myosuroides (ALOMY); experiment: Post-emergence biological efficacy (Example 14); details: Alopecurus myosuroides, 312 h; post-emergence, 1,000 g/ha, after 13 days; read-out: Percentage damage ALOMY
Procedure, shortened: (§6)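 Pot-grown seedlings raised 8 days in a glasshouse (24/16 °C day/night, 14 h light, 65% humidity) were sprayed post-emergence with compound in acetone/water (50:50) plus 0.5% Tween 20 at 250 or 1000 g/ha. Damage was scored visually after 13 days on a 0–100 scale (100 = total kill).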

[30] = tested on: Amaranthus retroflexus (AMARE); experiment: Post-emergence biological efficacy (Example 14); details: Amaranthus retroflexus, 312 h; post-emergence, 1,000 g/ha, after 13 days; read-out: Percentage damage AMARE
Procedure, shortened: as §6

[31] = tested on: Echinochloa crus-galli (ECHCG); experiment: Post-emergence biological efficacy (Example 14); details: Echinochloa crus-galli, 312 h; post-emergence, 1,000 g/ha, after 13 days; read-out: Percentage damage ECHCG
Procedure, shortened: as §6

[32] = tested on: Ipomea hederaceae (IPOHE); experiment: Post-emergence biological efficacy (Example 14); details: Ipomoea hederacea, 312 h; post-emergence, 1,000 g/ha, after 13 days; read-out: Percentage damage IPOHE
Procedure, shortened: as §6

[33] = tested on: Setaria faberi (SETFA); experiment: Post-emergence biological efficacy (Example 14); details: Setaria faberi, 312 h; post-emergence, 1,000 g/ha, after 13 days; read-out: Percentage damage SETFA
Procedure, shortened: as §6

[34] = tested on: Solanum nigrum (SOLNI); experiment: Post-emergence biological efficacy (Example 14); details: Solanum nigrum, 312 h; post-emergence, 1,000 g/ha, after 13 days; read-out: Percentage damage SOLNI
Procedure, shortened: as §6

[35] = tested on: GALAP Galium aparine; experiment: Post-emergence crop and weed test (Example 15); details: 360 h, 30 g/ha, after 15 days, read-out: Percentage damage GALAP
Description: as §1, §2

[36] = tested on: IPOHE Ipomoea hederacea; experiment: Post-emergence crop and weed test (Example 15); details: 360 h, 30 g/ha, after 15 days, read-out: Percentage damage IPOHE
Description: as §1, §2

In the case of `C=Cc1c(N)nc(-c2ccc(Cl)c(OC)c2F)nc1C(=O)O` [Compound 11, 4-amino-2-(4-chloro-2-fluoro-3-methoxyphenyl) -5-ethenylpyrimidine-6-carboxylic acid], the pest or weed control at 8 g/ha ([1]; 8 g/ha) is reported as 90%, the pest or weed control at 8 g/ha ([2]; 8 g/ha) is reported as 60% and the pest or weed control at 8 g/ha ([3]; 8 g/ha) is reported as 80%. For the same compound, the pest or weed control at 8 g/ha ([4]; 8 g/ha) was 90%, the plant injury at 8 g/ha ([5]; 8 g/ha) was 0% and the pest or weed control at 8 g/ha ([6]; 8 g/ha) was 10%. The pest or weed control at 8 g/ha ([7]; 8 g/ha) was 70%, the pest or weed control at 8 g/ha ([8]; 8 g/ha) was 80% and the pest or weed control at 8 g/ha ([9]; 8 g/ha) was 0%. The pest or weed control at 8 g/ha ([10]; 8 g/ha) was 80%, the pest or weed control at 8 g/ha ([11]; 8 g/ha) was 90% and the “Percentage damage ABUTH” value [12] was 100%. For the same compound, the “Percentage damage AMARE” value [13] was 100%, the “Percentage damage CHEAL” value [14] was 100% and the “Percentage damage EPHHL” value [15] was 100%. For the same compound, the “Percentage damage GLXMA” value [16] was 0%, the “Percentage damage IPOHE” value [17] was 100% and the “Percentage damage KCHSC” value [18] was 100%. The “Percentage damage POLCO” value [19] was 20%, the “Percentage damage SIDSP” value [20] was 100% and the “Percentage damage SINAR” value [21] was 70%. The “Percentage damage XANST” value [22] was 70%.
Work on `C=Cc1c(NCc2ccco2)nc(-c2ccc(Cl)cc2)nc1C(=O)OC` [Compound 7, 2-(4-Chlorophenyl)-5-ethenyl-4-(furan-2-ylmethylamino)-6-methoxycarbonyl-pyrimi-dine] yielded a pest or weed control at 1000 g/ha [23] of 50%, a pest or weed control at 1000 g/ha [24] of 100% and a pest or weed control at 1000 g/ha [25] of 20%. It also gave a pest or weed control at 1000 g/ha [26] of 40%, a pest or weed control at 1000 g/ha [27] of 10% and a pest or weed control at 1000 g/ha [28] of 20%. The pest or weed control at 1000 g/ha [29] was 30%, the pest or weed control at 1000 g/ha [30] was 100% and the pest or weed control at 1000 g/ha [31] was 40%. It also gave a pest or weed control at 1000 g/ha [32] of 80%, a pest or weed control at 1000 g/ha [33] of 0% and a pest or weed control at 1000 g/ha [34] of 90%. The pest or weed control at 30 g/ha ([1]; 30 g/ha) was 70%, the pest or weed control at 30 g/ha ([2]; 30 g/ha) was 50% and the pest or weed control at 30 g/ha ([3]; 30 g/ha) was 20%. For the same compound, the pest or weed control at 30 g/ha ([4]; 30 g/ha) was 0%, the pest or weed control at 30 g/ha [35] was 60% and the plant injury at 30 g/ha ([5]; 30 g/ha) was 0%. The pest or weed control at 30 g/ha [36] was 70%, the pest or weed control at 30 g/ha ([6]; 30 g/ha) was 40% and the pest or weed control at 30 g/ha ([7]; 30 g/ha) was 40%. It also gave a pest or weed control at 30 g/ha ([8]; 30 g/ha) of 0%, a pest or weed control at 30 g/ha ([9]; 30 g/ha) of 60% and a pest or weed control at 30 g/ha ([10]; 30 g/ha) of 80%. It also gave a pest or weed control at 30 g/ha ([11]; 30 g/ha) of 50%.
